PubChem BioAssay AID1745844 (Carcinogenic Potency Database (CPDB), 2022)

Test system: rodent lifetime carcinogenesis bioassay, tumor incidence TD50
Assay: chronic cancer bioassays in animals – CPDB, compiled studies (AID 1745844)
Conditions: by gavage

## CC(C)=CCl
mouse, strain B6C3F1, females, site: Harderian gland, lesion: papillary adenoma, dosed 102 weeks, study length 103 weeks
  TD50: 146 mg/kg/day
mouse, strain B6C3F1, females, site: any site (literature study), lesion: several types, types named in the paper, dosed 102 weeks, study length 103 weeks
  TD50: 14.6 mg/kg/day
mouse, strain B6C3F1, females, site: forestomach, lesion: adenosquamous carcinoma + carcinoma, NOS + squamous-cell carcinoma + squamous-cell papilloma, dosed 102 weeks, study length 103 weeks
  TD50: 14.3 mg/kg/day
mouse, strain B6C3F1, females, site: forestomach, lesion: adenosquamous carcinoma + carcinoma, NOS + squamous-cell carcinoma, dosed 102 weeks, study length 103 weeks
  TD50: 14.3 mg/kg/day
mouse, strain B6C3F1, females, site: forestomach, lesion: squamous-cell carcinoma + squamous-cell papilloma, dosed 102 weeks, study length 103 weeks
  TD50: 14.4 mg/kg/day
mouse, strain B6C3F1, females, site: forestomach, lesion: squamous-cell carcinoma, dosed 102 weeks, study length 103 weeks
  TD50: 14.4 mg/kg/day
mouse, strain B6C3F1, females, site: forestomach, lesion: squamous-cell papilloma, dosed 102 weeks, study length 103 weeks
  TD50: 373 mg/kg/day
mouse, strain B6C3F1, females, site: jejunum + liver + multiple organs + spleen, lesion: malignant lymphoma, lymphocytic type + malignant lymphoma, mixed type + malignant lymphoma, histiocytic type, dosed 102 weeks, study length 103 weeks
  TD50: 124 mg/kg/day
mouse, strain B6C3F1, females, site: liver + multiple organs + spleen, lesion: malignant lymphoma, mixed type, dosed 102 weeks, study length 103 weeks
  TD50: 229 mg/kg/day
mouse, strain B6C3F1, females, site: liver, lesion: hepatocellular adenoma + hepatocellular carcinoma + neoplastic nodule, dosed 102 weeks, study length 103 weeks
  TD50: 150 mg/kg/day
mouse, strain B6C3F1, females, site: liver, lesion: hepatocellular adenoma, dosed 102 weeks, study length 103 weeks
  TD50: 150 mg/kg/day
mouse, strain B6C3F1, females, site: lung, lesion: alveolar/bronchiolar adenoma + alveolar/bronchiolar carcinoma, dosed 102 weeks, study length 103 weeks
  TD50: 186 mg/kg/day
mouse, strain B6C3F1, females, site: lung, lesion: alveolar/bronchiolar adenoma, dosed 102 weeks, study length 103 weeks
  TD50: 235 mg/kg/day
mouse, strain B6C3F1, males, site: Harderian gland, lesion: papillary adenoma, dosed 102 weeks, study length 103 weeks
  TD50: 149 mg/kg/day
mouse, strain B6C3F1, males, site: any site (literature study), lesion: several types, types named in the paper, dosed 102 weeks, study length 103 weeks
  TD50: 13.9 mg/kg/day
mouse, strain B6C3F1, males, site: duodenum + lymph node + multiple organs + spleen, lesion: malignant lymphoma, mixed type + malignant lymphoma, NOS + granulocytic leukemia + malignant lymphoma, histiocytic type + malign, dosed 102 weeks, study length 103 weeks
  TD50: 148 mg/kg/day
mouse, strain B6C3F1, males, site: duodenum + lymph node + multiple organs + spleen, lesion: malignant lymphoma, mixed type + malignant lymphoma, NOS + malignant lymphoma, histiocytic type + malignant lymphoma, lymphocy, dosed 102 weeks, study length 103 weeks
  TD50: 154 mg/kg/day
mouse, strain B6C3F1, males, site: forestomach + preputial gland, lesion: squamous-cell carcinoma + squamous-cell papilloma, dosed 102 weeks, study length 103 weeks
  TD50: 15.2 mg/kg/day
mouse, strain B6C3F1, males, site: forestomach, lesion: squamous-cell carcinoma + squamous-cell papilloma, dosed 102 weeks, study length 103 weeks
  TD50: 15.5 mg/kg/day
mouse, strain B6C3F1, males, site: forestomach, lesion: squamous-cell carcinoma, dosed 102 weeks, study length 103 weeks
  TD50: 17.2 mg/kg/day
mouse, strain B6C3F1, males, site: forestomach, lesion: squamous-cell papilloma, dosed 102 weeks, study length 103 weeks
  TD50: 195 mg/kg/day
mouse, strain B6C3F1, males, site: liver + mesenteric lymph node + preputial gland + spleen, lesion: hemangioma + hemangiosarcoma, dosed 102 weeks, study length 103 weeks
  TD50: 221 mg/kg/day
mouse, strain B6C3F1, males, site: liver + spleen, lesion: hemangiosarcoma, dosed 102 weeks, study length 103 weeks
  TD50: 375 mg/kg/day
mouse, strain B6C3F1, males, site: liver, lesion: hepatocellular adenoma + hepatocellular carcinoma + neoplastic nodule, dosed 102 weeks, study length 103 weeks
  TD50: 48.8 mg/kg/day
mouse, strain B6C3F1, males, site: liver, lesion: hepatocellular adenoma + hepatocellular carcinoma, dosed 102 weeks, study length 103 weeks
  TD50: 48.8 mg/kg/day
mouse, strain B6C3F1, males, site: liver, lesion: hepatocellular adenoma, dosed 102 weeks, study length 103 weeks
  TD50: 87.1 mg/kg/day
mouse, strain B6C3F1, males, site: liver, lesion: hepatocellular carcinoma, dosed 102 weeks, study length 103 weeks
  TD50: 104 mg/kg/day
mouse, strain B6C3F1, males, site: lung, lesion: alveolar/bronchiolar adenoma + alveolar/bronchiolar carcinoma, dosed 102 weeks, study length 103 weeks
  TD50: 87.7 mg/kg/day
mouse, strain B6C3F1, males, site: lung, lesion: alveolar/bronchiolar adenoma, dosed 102 weeks, study length 103 weeks
  TD50: 117 mg/kg/day
mouse, strain B6C3F1, males, site: lung, lesion: alveolar/bronchiolar carcinoma, dosed 102 weeks, study length 103 weeks
  TD50: 199 mg/kg/day
mouse, strain B6C3F1, males, site: preputial gland, lesion: squamous-cell carcinoma, dosed 102 weeks, study length 103 weeks
  TD50: 90.7 mg/kg/day
rat, strain Fischer 344, females, site: any site (literature study), lesion: several types, types named in the paper, dosed 100 weeks, study length 104 weeks
  TD50: 11.9 mg/kg/day
rat, strain Fischer 344, females, site: esophagus + forestomach + gingiva + nasal cavity + oral mucosa + palate + tongue, lesion: squamous-cell carcinoma + squamous-cell papilloma + adenocarcinoma + adenoma, NOS + carcinoma, NOS, dosed 100 weeks, study length 104 weeks
  TD50: 25.3 mg/kg/day
rat, strain Fischer 344, females, site: esophagus, lesion: squamous-cell carcinoma, dosed 100 weeks, study length 104 weeks
  TD50: 250 mg/kg/day
rat, strain Fischer 344, females, site: forestomach, lesion: squamous-cell carcinoma + squamous-cell papilloma, dosed 100 weeks, study length 104 weeks
  TD50: 95.2 mg/kg/day
rat, strain Fischer 344, females, site: forestomach, lesion: squamous-cell carcinoma, dosed 100 weeks, study length 104 weeks
  TD50: 191 mg/kg/day
rat, strain Fischer 344, females, site: forestomach, lesion: squamous-cell papilloma, dosed 100 weeks, study length 104 weeks
  TD50: 209 mg/kg/day
rat, strain Fischer 344, females, site: gingiva + oral mucosa + palate + tongue, lesion: squamous-cell carcinoma + squamous-cell papilloma, dosed 100 weeks, study length 104 weeks
  TD50: 318 mg/kg/day
rat, strain Fischer 344, females, site: lung, lesion: alveolar/bronchiolar adenoma + alveolar/bronchiolar carcinoma, dosed 100 weeks, study length 104 weeks
  TD50: 218 mg/kg/day
rat, strain Fischer 344, females, site: mammary gland, lesion: adenocarcinoma + fibroadenoma, dosed 100 weeks, study length 104 weeks
  TD50: 36.7 mg/kg/day
rat, strain Fischer 344, females, site: mammary gland, lesion: fibroadenoma, dosed 100 weeks, study length 104 weeks
  TD50: 38.3 mg/kg/day
rat, strain Fischer 344, females, site: multiple organs, lesion: lymphocytic leukemia + mononuclear-cell leukemia, dosed 100 weeks, study length 104 weeks
  TD50: 170 mg/kg/day
rat, strain Fischer 344, females, site: multiple organs, lesion: mononuclear-cell leukemia, dosed 100 weeks, study length 104 weeks
  TD50: 202 mg/kg/day
rat, strain Fischer 344, females, site: nasal cavity, lesion: adenocarcinoma + adenoma, NOS + carcinoma, NOS + squamous-cell carcinoma, dosed 100 weeks, study length 104 weeks
  TD50: 34.3 mg/kg/day
rat, strain Fischer 344, females, site: nasal cavity, lesion: adenocarcinoma + adenoma, NOS, dosed 100 weeks, study length 104 weeks
  TD50: 143 mg/kg/day
rat, strain Fischer 344, females, site: nasal cavity, lesion: adenocarcinoma + carcinoma, NOS + squamous-cell carcinoma, dosed 100 weeks, study length 104 weeks
  TD50: 35.2 mg/kg/day
rat, strain Fischer 344, females, site: nasal cavity, lesion: adenocarcinoma, dosed 100 weeks, study length 104 weeks
  TD50: 159 mg/kg/day
rat, strain Fischer 344, females, site: nasal cavity, lesion: carcinoma, NOS + squamous-cell carcinoma, dosed 100 weeks, study length 104 weeks
  TD50: 46.8 mg/kg/day
rat, strain Fischer 344, females, site: nasal cavity, lesion: carcinoma, NOS, dosed 100 weeks, study length 104 weeks
  TD50: 52.7 mg/kg/day
rat, strain Fischer 344, females, site: oral mucosa + palate, lesion: squamous-cell papilloma, dosed 100 weeks, study length 104 weeks
  TD50: 1010 mg/kg/day
rat, strain Fischer 344, females, site: oral mucosa, lesion: squamous-cell papilloma, dosed 100 weeks, study length 104 weeks
  TD50: 1220 mg/kg/day
rat, strain Fischer 344, females, site: pituitary gland, anterior, lesion: adenoma, NOS + chromophobe adenoma + chromophobe carcinoma, dosed 100 weeks, study length 104 weeks
  TD50: 68 mg/kg/day
rat, strain Fischer 344, females, site: pituitary gland, anterior, lesion: adenoma, NOS + chromophobe adenoma, dosed 100 weeks, study length 104 weeks
  TD50: 101 mg/kg/day
rat, strain Fischer 344, females, site: pituitary gland, anterior, lesion: chromophobe adenoma + chromophobe carcinoma, dosed 100 weeks, study length 104 weeks
  TD50: 71.7 mg/kg/day
rat, strain Fischer 344, females, site: pituitary gland, anterior, lesion: chromophobe adenoma, dosed 100 weeks, study length 104 weeks
  TD50: 109 mg/kg/day
rat, strain Fischer 344, females, site: pituitary gland, anterior, lesion: chromophobe carcinoma, dosed 100 weeks, study length 104 weeks
  TD50: 222 mg/kg/day
rat, strain Fischer 344, females, site: thyroid gland, lesion: c-cell adenoma, dosed 100 weeks, study length 104 weeks
  TD50: 225 mg/kg/day
rat, strain Fischer 344, females, site: thyroid gland, lesion: follicular-cell adenoma + follicular-cell carcinoma, dosed 100 weeks, study length 104 weeks
  TD50: 131 mg/kg/day
rat, strain Fischer 344, females, site: thyroid gland, lesion: follicular-cell carcinoma, dosed 100 weeks, study length 104 weeks
  TD50: 136 mg/kg/day
rat, strain Fischer 344, females, site: uterus, lesion: endometrial stromal polyp + endometrial stromal sarcoma, dosed 100 weeks, study length 104 weeks
  TD50: 84.9 mg/kg/day
rat, strain Fischer 344, females, site: uterus, lesion: endometrial stromal polyp, dosed 100 weeks, study length 104 weeks
  TD50: 91.9 mg/kg/day
rat, strain Fischer 344, males, site: adrenal gland + adrenal medulla, lesion: pheochromocytoma, malignant + pheochromocytoma, dosed 94 weeks, study length 104 weeks
  TD50: 86.7 mg/kg/day
rat, strain Fischer 344, males, site: any site (literature study), lesion: several types, types named in the paper, dosed 94 weeks, study length 104 weeks
  TD50: 10.2 mg/kg/day
rat, strain Fischer 344, males, site: esophagus + forestomach + lip + nasal cavity + palate + tongue, lesion: squamous-cell carcinoma + squamous-cell papilloma + adenocarcinoma + carcinoma, NOS, dosed 94 weeks, study length 104 weeks
  TD50: 17.5 mg/kg/day
rat, strain Fischer 344, males, site: esophagus, lesion: squamous-cell carcinoma + squamous-cell papilloma, dosed 94 weeks, study length 104 weeks
  TD50: 81.6 mg/kg/day
rat, strain Fischer 344, males, site: esophagus, lesion: squamous-cell carcinoma, dosed 94 weeks, study length 104 weeks
  TD50: 143 mg/kg/day
rat, strain Fischer 344, males, site: esophagus, lesion: squamous-cell papilloma, dosed 94 weeks, study length 104 weeks
  TD50: 218 mg/kg/day
rat, strain Fischer 344, males, site: forestomach, lesion: squamous-cell carcinoma + squamous-cell papilloma, dosed 94 weeks, study length 104 weeks
  TD50: 41.6 mg/kg/day
rat, strain Fischer 344, males, site: forestomach, lesion: squamous-cell carcinoma, dosed 94 weeks, study length 104 weeks
  TD50: 135 mg/kg/day
rat, strain Fischer 344, males, site: forestomach, lesion: squamous-cell papilloma, dosed 94 weeks, study length 104 weeks
  TD50: 67.1 mg/kg/day
rat, strain Fischer 344, males, site: lip + palate + tongue, lesion: squamous-cell carcinoma + squamous-cell papilloma, dosed 94 weeks, study length 104 weeks
  TD50: 163 mg/kg/day
rat, strain Fischer 344, males, site: lip + palate + tongue, lesion: squamous-cell carcinoma, dosed 94 weeks, study length 104 weeks
  TD50: 178 mg/kg/day
rat, strain Fischer 344, males, site: liver, lesion: hepatocellular adenoma + hepatocellular carcinoma + neoplastic nodule, dosed 94 weeks, study length 104 weeks
  TD50: 1030 mg/kg/day
rat, strain Fischer 344, males, site: multiple organs, lesion: mononuclear-cell leukemia, dosed 94 weeks, study length 104 weeks
  TD50: 128 mg/kg/day
rat, strain Fischer 344, males, site: nasal cavity, lesion: adenocarcinoma + carcinoma, NOS + squamous-cell carcinoma, dosed 94 weeks, study length 104 weeks
  TD50: 29.7 mg/kg/day
rat, strain Fischer 344, males, site: nasal cavity, lesion: adenocarcinoma, NOS, dosed 94 weeks, study length 104 weeks
  TD50: 70.1 mg/kg/day
rat, strain Fischer 344, males, site: nasal cavity, lesion: carcinoma, NOS + squamous-cell carcinoma, dosed 94 weeks, study length 104 weeks
  TD50: 52.1 mg/kg/day
rat, strain Fischer 344, males, site: nasal cavity, lesion: carcinoma, NOS, dosed 94 weeks, study length 104 weeks
  TD50: 63.4 mg/kg/day
rat, strain Fischer 344, males, site: nasal cavity, lesion: squamous-cell carcinoma, dosed 94 weeks, study length 104 weeks
  TD50: 297 mg/kg/day
rat, strain Fischer 344, males, site: testis, lesion: interstitial-cell tumor, dosed 94 weeks, study length 104 weeks
  TD50: 13.9 mg/kg/day
rat, strain Fischer 344, males, site: tongue, lesion: squamous-cell carcinoma + squamous-cell papilloma, dosed 94 weeks, study length 104 weeks
  TD50: 415 mg/kg/day
rat, strain Fischer 344, males, site: tongue, lesion: squamous-cell carcinoma, dosed 94 weeks, study length 104 weeks
  TD50: 469 mg/kg/day
